# Measurements from ChEMBL document CHEMBL1137877, “Synthesis and evaluation of 4-(1-aminoalkyl)-N-(4-pyridyl)cyclohexanecarboxamides as Rho kinase inhibitors and neurite outgrowth promoters” (2004).
# Test system: NG108-15
# Assay: Mean percent neurite outgrowth (cells with neurites longer than cell body/total cells) was determined in NG108-15 cells after 4 hr incubation at 35 uM
# Type: functional, Mus musculus x Rattus norvegicus
row,Structure (SMILES),Activity
1,"CCC[C@@H](N)C1CCC(C(=O)Nc2ccncc2)CC1.Cl.Cl (single isomer, unassigned; (+))",48%
2,C[C@@H](N)[C@H]1CC[C@H](C(=O)Nc2ccncc2)CC1.Cl.Cl,82%
3,CCCCCCCC[C@@H](N)C1CCC(C(=O)Nc2ccncc2)CC1.Cl.Cl (stereo partly specified),0%
4,C[C@@H](N)C1CCC(C(=O)Nc2ccncc2)CC1.Cl.Cl (stereo partly specified),68%
5,C[C@H](N)C1CCC(C(=O)Nc2ccncc2)CC1.Cl.Cl (stereo partly specified),70%
6,CCC[C@H](N)C1CCC(C(=O)Nc2ccncc2)CC1.Cl.Cl (stereo partly specified),23%
